Data published in patent US6395773B1, “Anti-drug resistant strain agents and antichlamydia agents” (Japan Science and Technology Corporation, priority 1999, dated 2002).
≈ marks a conversion by molar mass, not a printed value.

What was measured:
[1] = tested on: methicillin-resistant Staphylococcus aureus (MRSA); test: Effect on decreasing antibiotic resistance by concomitant use of FNQ3, MRSA; details: for MIC: Staphylococcus aureus, 24 h, read-out: MIC of antibiotic, −FNQ3; for MIC of antibiotic, +FNQ3: concomitant FNQ3, final concentration 0.5 μg/ml; for decrease of the resistance of MRSA against the antibiotic (fraction of MIC): with the Compound (FNQ3) 0.5 μg/ml
[2] = tested on: methicillin-sensitive Staphylococcus aureus (MSSA); test: Effect on decreasing antibiotic resistance by concomitant use of FNQ3, MSSA; details: for MIC: Staphylococcus aureus, 24 h, read-out: MIC of antibiotic, −FNQ3; for MIC of antibiotic, +FNQ3: concomitant FNQ3, final concentration 0.5 μg/ml
[3] = tested on: fluconazole-resistant Candida albicans (FRCA); test: Proliferation inhibitory test for Candida albicans (agar medium MIC), FRCA; details: for MIC: Candida albicans
[4] = tested on: fluconazole-sensitive Candida albicans (FSCA); test: Proliferation inhibitory test for Candida albicans (agar medium MIC), FSCA
C. pneumoniae = test: microbe, parasite or virus in culture; format: cell-based; details: Chlamydia pneumoniae
C. trachomatis = test: microbe, parasite or virus in culture; format: cell-based; details: Chlamydia trachomatis
C. psittaci = test: microbe, parasite or virus in culture; format: cell-based; details: Chlamydia psittaci, strain Cal 10
[5] = tested on: all tested strains of Chlamydia; format: cell-based; details: tendency; McCoy and WI38 versus HeLa229
Staphylococcus aureus = test: FNQ3 alone, growth of Staphylococcus aureus; details: 0.5 μg/ml
[6] = tested on: methicillin-resistant Staphylococcus aureus (MRSA); test: Proliferation inhibitory test for Staphylococcus aureus (agar medium MIC), MRSA; details: for MIC: Staphylococcus aureus, MRSA
[7] = tested on: methicillin-sensitive Staphylococcus aureus (MSSA); test: Proliferation inhibitory test for Staphylococcus aureus (agar medium MIC), MSSA; details: for MIC: Staphylococcus aureus, MSSA

## CC1(C)S[C@@H]2[C@H](NC(=O)[C@H](N)c3ccccc3)C(=O)N2[C@H]1C(=O)O [Ampicillin]
[1]
  MIC: 32 µg/mL
  MIC of antibiotic, +FNQ3: 4 µg/mL
  decrease of the resistance of MRSA against the antibiotic (fraction of MIC): ½ to ¼
[2]
  MIC: 32 µg/mL
  MIC of antibiotic, +FNQ3: 16 to 32 µg/mL

## CN(C)CCn1nnnc1SCC1=C(C(=O)O)N2C(=O)[C@@H](NC(=O)Cc3csc(N)n3)[C@H]2SC1 [Cefotiam]
[1]
  MIC: 32 µg/mL
  MIC of antibiotic, +FNQ3: 16 to 32 µg/mL
[2]
  MIC: 0.25 to 0.5 µg/mL
  MIC of antibiotic, +FNQ3: 0.25 µg/mL

## CC[C@H]1OC(=O)[C@H](C)[C@@H](O[C@H]2C[C@@](C)(OC)[C@@H](O)[C@H](C)O2)[C@H](C)[C@@H](O[C@@H]2O[C@H](C)C[C@H](N(C)C)[C@H]2O)[C@](C)(OC)C[C@@H](C)C(=O)[C@H](C)[C@@H](O)[C@]1(C)O [Clarithromycin]
[1]
  MIC: 16 µg/mL
  MIC of antibiotic, +FNQ3: 16 µg/mL
[2]
  MIC: 0.5 µg/mL
  MIC of antibiotic, +FNQ3: 0.5 to 1 µg/mL

## OC(Cn1cncn1)(Cn1cncn1)c1ccc(F)cc1F [FLCZ, fluconazole, reference compound]
[3]; FRCA strain CA383
  MIC: > 64 µg/mL
[3]; FRCA strain CA8941
  MIC: > 64 µg/mL
[3]; FRCA strain DUNC136
  MIC: > 64 µg/mL
[3]; FRCA strain MCV7
  MIC: 32 µg/mL (≈ 104 µM)
[3]; FRCA strain S78941
  MIC: > 64 µg/mL
[3]; FRCA strain T77042
  MIC: > 64 µg/mL
[4]; Candida albicans
  MIC: 0.03 µg/mL (≈ 0.098 µM)
[4]; Candida albicans, TIMM0239
  MIC: 0.13 µg/mL (≈ 0.424 µM)
[4]; Candida albicans, TIMM1756
  MIC: 0.06 µg/mL (≈ 0.196 µM)
[4]; Candida albicans, TIMM1850
  MIC: 0.06 µg/mL (≈ 0.196 µM)
[4]; FSCA strain TA
  MIC: 0.03 µg/mL (≈ 0.098 µM)

## Cc1cc2c(o1)C(=O)c1ccccc1C2=O [FNQ3, 2-methylnaphtho[2,3-b]furan-4,9-dione]
C. pneumoniae; strain KKpn-1, HeLa229 cells
  MIC: 0.25 µg/mL (≈ 1.18 µM)
C. pneumoniae; strain KKpn-1, McCoy cells
  MIC: 0.25 µg/mL (≈ 1.18 µM)
C. pneumoniae; strain TW-183, HeLa229 cells
  MIC: 0.6 µg/mL (≈ 2.83 µM)
C. trachomatis; strain D, HeLa229 cells
  MIC: 1 µg/mL (≈ 4.71 µM)
C. trachomatis; strain F, HeLa229 cells
  MIC: 1 µg/mL (≈ 4.71 µM)
C. trachomatis; strain L2, HeLa229 cells
  MIC: 1 µg/mL (≈ 4.71 µM)
C. trachomatis; strain L2, McCoy cells
  MIC: 0.6 µg/mL (≈ 2.83 µM)
C. trachomatis; strain L2, WI 38 cells
  MIC: 0.5 µg/mL (≈ 2.36 µM)
C. psittaci; HeLa229 cells
  MIC: 1 µg/mL (≈ 4.71 µM)
C. psittaci; McCoy cells
  MIC: 0.5 µg/mL (≈ 2.36 µM)
C. psittaci; WI 38 cells
  MIC: 0.25 µg/mL (≈ 1.18 µM)
[5]
  MIC with McCoy and WI38 cells relative to HeLa229 cells: approximately ½
Staphylococcus aureus
  influence on the growth of Staphylococcus aureus: no influence on the growth

## Cc1cc2c(o1)C(=O)c1c(O)cccc1C2=O [FNQ13, 8-hydroxy-2-methylnaphtho[2,3-b]furan-4,9-dione]
[3]; FRCA strain CA383
  MIC: 2 µg/mL (≈ 8.76 µM)
[3]; FRCA strain CA8941
  MIC: 8 µg/mL (≈ 35.1 µM)
[3]; FRCA strain DUNC136
  MIC: 4 µg/mL (≈ 17.5 µM)
[3]; FRCA strain MCV7
  MIC: 2 µg/mL (≈ 8.76 µM)
[3]; FRCA strain S78941
  MIC: 4 µg/mL (≈ 17.5 µM)
[3]; FRCA strain T77042
  MIC: 2 µg/mL (≈ 8.76 µM)
[3]; FRCA (resistant strain) versus FSCA (sensitive strain)
  antibacterial activity against FRCA compared with FSCA: same degree of antibacterial activity
[4]; Candida albicans
  MIC: 4 µg/mL (≈ 17.5 µM)
[4]; Candida albicans, TIMM0239
  MIC: 2 µg/mL (≈ 8.76 µM)
[4]; Candida albicans, TIMM1756
  MIC: 2 µg/mL (≈ 8.76 µM)
[4]; Candida albicans, TIMM1850
  MIC: 2 µg/mL (≈ 8.76 µM)
[4]; FSCA strain TA
  MIC: 4 µg/mL (≈ 17.5 µM)
[6]; MRSA strain 1 (Patient)
  MIC: 6.25 µg/mL (≈ 27.4 µM)
[6]; MRSA strain 2 (Patient)
  MIC: 3.13 µg/mL (≈ 13.7 µM)
[6]; MRSA strain 3 (Patient)
  MIC: 3.13 µg/mL (≈ 13.7 µM)
[6]; MRSA strain 4 (Patient)
  MIC: 12.5 µg/mL (≈ 54.8 µM)
[6]; MRSA strain 5 (Patient)
  MIC: 12.5 µg/mL (≈ 54.8 µM)
[6]; MRSA strain 6 (Patient)
  MIC: 3.13 µg/mL (≈ 13.7 µM)
[6]; MRSA strain 7 (Patient)
  MIC: 6.25 µg/mL (≈ 27.4 µM)
[6]; MRSA strain 8 (Patient)
  MIC: 3.13 µg/mL (≈ 13.7 µM)
[6]; MRSA strain 9 (Patient)
  MIC: 6.25 µg/mL (≈ 27.4 µM)
[6]; MRSA strain 10 (Patient)
  MIC: 3.13 µg/mL (≈ 13.7 µM)
[6]; MRSA strain 11 (Patient)
  MIC: 6.25 µg/mL (≈ 27.4 µM)
[6]; MRSA strain 12 (N133)
  MIC: 1.56 µg/mL (≈ 6.84 µM)
[6]; MRSA strain 13 (OF4)
  MIC: 1.56 µg/mL (≈ 6.84 µM)
[6]; MRSA strain 14 (N295)
  MIC: 6.25 µg/mL (≈ 27.4 µM)
[6]; read-out: MIC, Mean ± standard deviation, mean over 14 MRSA strains
  MIC: 5.36 µg/mL (≈ 23.5 µM)
[6]; mean over 14 MRSA strains
  MIC, Mean ± standard deviation: 5.36 ± 3.5 µg/mL (≈ 23.5 µM)
[7]; MSSA strain 1 (Patient)
  MIC: 25 µg/mL (≈ 110 µM)
[7]; MSSA strain 2 (Patient)
  MIC: 6.25 µg/mL (≈ 27.4 µM)
[7]; MSSA strain 3 (Patient)
  MIC: 12.5 µg/mL (≈ 54.8 µM)
[7]; MSSA strain 4 (Patient)
  MIC: 12.5 µg/mL (≈ 54.8 µM)
[7]; MSSA strain 5 (Patient)
  MIC: 12.5 µg/mL (≈ 54.8 µM)
[7]; MSSA strain 6 (Patient)
  MIC: 6.25 µg/mL (≈ 27.4 µM)
[7]; MSSA strain 7 (Patient)
  MIC: 6.25 µg/mL (≈ 27.4 µM)
[7]; MSSA strain 8 (Patient)
  MIC: 12.5 µg/mL (≈ 54.8 µM)
[7]; MSSA strain 9 (Patient)
  MIC: 12.5 µg/mL (≈ 54.8 µM)
[7]; MSSA strain 10 (Patient)
  MIC: 12.5 µg/mL (≈ 54.8 µM)
[7]; MSSA strain 11 (Patient)
  MIC: 12.5 µg/mL (≈ 54.8 µM)
[7]; MSSA strain 12 (1840)
  MIC: 12.5 µg/mL (≈ 54.8 µM)
[7]; read-out: MIC, Mean ± standard deviation, mean over 12 MSSA strains, p < 0.01
  MIC: 12 µg/mL (≈ 52.5 µM)
[7]; mean over 12 MSSA strains, p < 0.01
  MIC, Mean ± standard deviation: 11.98 ± 4.9 µg/mL (≈ 52.5 µM)

## C[C@H]1COc2c(N3CCN(C)CC3)c(F)cc3c(=O)c(C(=O)O)cn1c23 [Levofloxacin]
[1]
  MIC: 8 µg/mL
  MIC of antibiotic, +FNQ3: 4 µg/mL
[2]
  MIC: 0.25 µg/mL
  MIC of antibiotic, +FNQ3: 0.25 µg/mL

## CN(C)c1ccc(O)c2c1C[C@H]1C[C@H]3[C@H](N(C)C)C(O)=C(C(N)=O)C(=O)[C@@]3(O)C(O)=C1C2=O [Minacycline]
[1]
  MIC: 8 µg/mL
  MIC of antibiotic, +FNQ3: 2 to 4 µg/mL
[2]
  MIC: 0.25 µg/mL
  MIC of antibiotic, +FNQ3: 0.25 µg/mL

## CC[C@H]1OC(=O)[C@H](C)[C@@H](O[C@H]2C[C@@](C)(OC)[C@@H](O)[C@H](C)O2)[C@H](C)[C@@H](O[C@@H]2O[C@H](C)C[C@H](N(C)C)[C@H]2O)[C@](C)(O)C[C@@H](C)/C(=N\OCOCCOC)[C@H](C)[C@@H](O)[C@]1(C)O [Roxithromycin]
[1]
  MIC: 16 µg/mL
  MIC of antibiotic, +FNQ3: 16 µg/mL
[2]
  MIC: 1 µg/mL
  MIC of antibiotic, +FNQ3: 1 µg/mL

## CN[C@H](CC(C)C)C(=O)N[C@H]1C(=O)N[C@@H](CC(N)=O)C(=O)N[C@H]2C(=O)N[C@H]3C(=O)N[C@H](C(=O)N[C@H](C(=O)O)c4cc(O)cc(O)c4-c4cc3ccc4O)[C@H](O)c3ccc(c(Cl)c3)Oc3cc2cc(c3O[C@@H]2O[C@H](CO)[C@@H](O)[C@H](O)[C@H]2O[C@H]2C[C@](C)(N)[C@H](O)[C@H](C)O2)Oc2ccc(cc2Cl)[C@H]1O [Vancomycin]
[1]
  MIC: 2.5 µg/mL
  MIC of antibiotic, +FNQ3: 0.6 to 1.25 µg/mL
  decrease of the resistance of MRSA against the antibiotic (fraction of MIC): ½ to ¼
[2]
  MIC: 0.6 µg/mL
  MIC of antibiotic, +FNQ3: 0.6 µg/mL

## N[C@@H](C(=O)N[C@@H]1C(=O)N2C(C(=O)O)=C(Cl)CS[C@H]12)c1ccccc1 [cefaclor]
[1]
  MIC: 64 µg/mL
  MIC of antibiotic, +FNQ3: 16 µg/mL
  decrease of the resistance of MRSA against the antibiotic (fraction of MIC): ½ to ¼
[2]
  MIC: 1 µg/mL
  MIC of antibiotic, +FNQ3: 1 µg/mL
